Data published in paper PMC4749975, “Selective binding modes and allosteric inhibitory effects of lupane triterpenes on protein tyrosine phosphatase 1B” (Scientific Reports, 2016).
Entries after “also recorded” stand apart in the source; their conditions may differ. Where two headings read alike, the source gives them in different places.

Experiments:
PTP1B [1] = assay: Western blot of PTP1B protein expression in mHypoE-46 neurons; format: cell-based, Mouse; details: for PTP1B protein expression: 10 h after TNFα 8 h
Description: (§1) Mouse hypothalamic cell line (mHypoE-46) neurons were grown in monolayer in Dulbecco’s modified Eagle medium (DMEM) (Sigma D5796, Castle Hill, NSW) with 10% fetal bovine serum (FBS) (SAFC Biosciences Inc, Lenexa, KS) and 1% penicillin/streptomycin. They were maintained at 37 °C with 5% CO2. Prior to treatment, the cell culture medium was replaced with DMEM containing 1% penicillin/streptomycin for 4 h. Murine TNFα was obtained from Sigma-Aldrich (Castle Hill, NSW). Lupeol and betulinic acid were dissolved in Dimethyl sulfoxide (DMSO), then diluted in sterile water, and mixed with serum free cell culture medium. The DMSO concentration was controlled below 0.15%.
The method was described in our previous study with modifications, mHypoE-46 neurons were washed with ice-cold PBS and lysed in NP-40 lysis buffer (Invitrogen Australia Pty Ltd, Mulgrave, VIC) containing a protease inhibitor cocktail, beta-glycerophosphate and phenylmethanesulfonyl fluoride (PMSF) (Sigma, Castle Hill, NSW). Cell lysates were centrifuged at 14000 rpm for 10 min at 4 °C. The supernatants were collected and protein concentrations were determined using the DC assay (Bio-Rad Laboratories, Gladesville, NSW) according to the manufacturer’s instructions. Equal amounts of protein (10 μg) were separated on 4–12% Bis-Tris gels (Bio-Rad Laboratories, Gladesville, NSW,) using SDS-PAGE. Following electrophoresis (120 V for 2 h), the proteins were transferred to polyvinylidene difluoride membranes (100 V for 1 h). Membranes were blocked in 5% bovine serum albumin (BSA), followed by incubation with the primary antibodies PTP1B (sc-1718, 1:500, Santa Cruz Biotechnology Inc, Dallas, TX) in 1% BSA overnight at 4 °C. […] The bands corresponding to the proteins of interest were scanned and densitometrically analysed using the automatic imaging analysis system Quantity One (Bio-Rad Laboratories, Gladesville, NSW). All quantitative analyses were normalised to β-actin.

PTP1B [2] = biological target: T1, PTP1B (Mus musculus, UniProt P35821); assay: Immunoprecipitation assay of PTP1B activity in TNFα-treated mHypoE-46 neurons; format: cell-based
T1 construct: endogenous in cells; host or cells: mHypoE-46 mouse hypothalamic neurons
T1 sequence (P35821 1-432): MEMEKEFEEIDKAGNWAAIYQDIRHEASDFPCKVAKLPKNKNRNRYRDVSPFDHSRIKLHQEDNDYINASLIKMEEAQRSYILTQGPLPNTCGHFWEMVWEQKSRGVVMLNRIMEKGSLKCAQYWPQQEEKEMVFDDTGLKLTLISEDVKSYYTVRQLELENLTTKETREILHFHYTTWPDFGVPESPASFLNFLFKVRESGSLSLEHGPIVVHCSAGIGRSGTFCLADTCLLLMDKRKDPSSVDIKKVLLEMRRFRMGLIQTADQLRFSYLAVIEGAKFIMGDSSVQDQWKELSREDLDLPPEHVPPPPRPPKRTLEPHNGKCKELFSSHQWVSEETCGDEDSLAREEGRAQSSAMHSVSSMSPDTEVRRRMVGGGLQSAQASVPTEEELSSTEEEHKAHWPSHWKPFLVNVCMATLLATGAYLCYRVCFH
Description: as §1
Based on the instructions of the Pierce Classic IP Kit (#26146, Thermo Fisher Scientific Inc, IL) with minor modifications, PTP1B was immunoprecipitated using the 25 μg PTP1B antibody (sc-1718, Santa Cruz Biotechnology Inc, Dallas, TX) for 12 h at 4 °C. Immune complexes were isolated by adding the protein G-agarose, washed three times in the phosphatase assay buffer from the EnzoLyte Colorimetric pNPP Protein Phosphatase Assay kit (Anaspec, San Jose, CA), and resuspended in the same buffer. Samples were analysed for the phosphatase activity using the same pNPP assay kit mentioned above.

PTP1B [3] = biological target: T2, PTP1B (Homo sapiens, UniProt P18031); details: cited from earlier work; for IC50: read-out: IC50 PTP1B
T2 sequence (P18031 1-435): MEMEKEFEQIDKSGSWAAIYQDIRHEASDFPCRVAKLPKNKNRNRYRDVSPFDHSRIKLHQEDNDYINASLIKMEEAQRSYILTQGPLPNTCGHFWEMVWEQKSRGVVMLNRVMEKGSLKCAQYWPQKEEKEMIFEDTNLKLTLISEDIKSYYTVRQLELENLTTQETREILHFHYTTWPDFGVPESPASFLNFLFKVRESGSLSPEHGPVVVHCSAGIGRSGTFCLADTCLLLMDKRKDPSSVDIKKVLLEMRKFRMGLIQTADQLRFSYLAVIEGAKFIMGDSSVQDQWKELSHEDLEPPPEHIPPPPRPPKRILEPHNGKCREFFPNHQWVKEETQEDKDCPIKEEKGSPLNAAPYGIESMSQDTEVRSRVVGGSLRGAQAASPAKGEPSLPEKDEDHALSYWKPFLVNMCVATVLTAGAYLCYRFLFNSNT

[4] = biological target: T3, recombinant human TCPTP protein (Homo sapiens, UniProt P17706); assay: Inhibiting TCPTP by pNPP phosphatase assay; format: biochemical; details: for Fold changes (TCPTP IC50 / PTP1B IC50): PTP1B IC50 from literature, TCPTP IC50 measured
T3 construct: purchased Abcam Inc (Cambridge, MA) ab42575
T3 sequence (P17706 1-415): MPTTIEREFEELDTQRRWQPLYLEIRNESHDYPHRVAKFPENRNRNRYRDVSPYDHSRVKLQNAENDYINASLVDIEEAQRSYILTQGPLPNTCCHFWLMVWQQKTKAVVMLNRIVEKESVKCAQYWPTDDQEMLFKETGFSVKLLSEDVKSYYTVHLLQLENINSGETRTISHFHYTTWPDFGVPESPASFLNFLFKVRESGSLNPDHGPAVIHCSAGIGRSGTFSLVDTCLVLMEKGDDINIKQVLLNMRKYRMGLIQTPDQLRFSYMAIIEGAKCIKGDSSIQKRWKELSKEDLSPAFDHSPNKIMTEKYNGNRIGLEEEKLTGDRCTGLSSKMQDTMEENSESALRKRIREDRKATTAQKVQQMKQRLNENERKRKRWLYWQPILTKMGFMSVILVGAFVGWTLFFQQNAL

PTP1B [5] = biological target: T2, PTP1B; assay: PTP1B inhibition kinetics assay (Lineweaver-Burk, pNPP); format: biochemical; details: Lineweaver-Burk plot; for mode of inhibition of PTP1B: 6 pNPP and 4 compound concentrations
Description: The Lupeol group was used as a control group. The absorbance at 405 nm was detected by a spectraMAX 384 microplate spectrophotometer twice every minute for a total of 15 min. Michaelis-Menten constant (Km) and maximum velocity (Vmax) of PTP1B were determined via Lineweaver-Burk plots using the GraphPad Prism 5 program (GraphPad Software Inc, La Jolla, CA).

PTP1B [6] = biological target: T2, PTP1B; assay: Estimation of Ki and binding free energy from experimental IC50 (IC50-to-Ki converter)
[7] = pNPP assay, 25 °C, read-out: IC50 TCPTP

Row | Molecule | mode of inhibition of PTP1B (literature) (PTP1B [3]) | IC50 (PTP1B [3]) [µM] | Fold changes (TCPTP IC50 / PTP1B IC50) [4] [fold] | IC50 [4, 7] [µM] | Km value of PTP1B in presence of compound (PTP1B [5]) | Vmax value of PTP1B in presence of compound (PTP1B [5]) | mode of inhibition of PTP1B (PTP1B [5]) | Ki (PTP1B [6]) [µM] | IC50 [4] [µM] | also measured
1 | TNFα | – | – | – | – | – | – | – | – | – | increase of PTP1B expression (PTP1B [1]; TNFα 20 ng/ml, 8 h): 1.75 fold; increase of PTP1B activity (PTP1B [2]; TNFα 20 ng/ml, 8 h): 1.5 fold
2 | C=C(C)[C@@H]1CC[C@]2(C)CC[C@]3(C)[C@H](CC[C@@H]4[C@@]5(C)CCC(=O)C(C)(C)[C@@H]5CC[C@]43C)[C@@H]12 [Lupenone, lupenone] | non-competitive inhibitors | 13.7 | 6 | 91.5 | – | – | – | – | – | –
3 | CCc1oc2cc(S(=O)(=O)Nc3ccc(S(=O)(=O)Nc4nccs4)cc3)ccc2c1C(=O)c1cc(Br)c(O)c(Br)c1 [Compound 3, reference compound] | – | – | – | 62.7 | – | – | – | – | – | –
4 | C=C(C)[C@@H]1CC[C@]2(CO)CC[C@]3(C)[C@H](CC[C@@H]4[C@@]5(C)CC[C@H](O)C(C)(C)[C@@H]5CC[C@]43C)[C@@H]12 [Betulin, betulin] | – | 15.3 | 7 | – | altered Km value | decreased Vmax value | mixed-type inhibition | 15.3 | 119 | –
5 | C=C(C)[C@@H]1CC[C@]2(C(=O)O)CC[C@]3(C)[C@H](CC[C@@H]4[C@@]5(C)CC[C@H](O)C(C)(C)[C@@H]5CC[C@]43C)[C@@H]12 [Betulinic acid, betulinic acid] | – | – | 81 | 124 | constant Km value | decreased Vmax value | non-competitive inhibitor | – | – | Ki (PTP1B [6]; IC50-to-Ki converter, [E] 0.01, [S] 20000 µM, read-out: Constant of inhibition [Ki]): 1.5 µM; PTP1B protein expression (PTP1B [1]; betulinic acid 7.5 μM): slightly decreased; also recorded: do not significantly decrease; inhibition of PTP1B enzyme activity (PTP1B [2]; betulinic acid 7.5 μM, 10 h after TNFα 8 h): significantly inhibited; inhibition at 7.5 µM (PTP1B [2]; betulinic acid 7.5 μM, 10 h after TNFα 8 h, read-out: inhibition of PTP1B enzyme activity): 35%
6 | C=C(C)[C@@H]1CC[C@]2(C)CC[C@]3(C)[C@H](CC[C@@H]4[C@@]5(C)CC[C@H](O)C(C)(C)[C@@H]5CC[C@]43C)[C@@H]12 [Lupeol, lupeol] | non-competitive inhibitor | 5.6 | 22 | – | – | – | – | 5.6 | 126 | PTP1B protein expression (PTP1B [1]; lupeol 28 μM): slightly decreased; also recorded: do not significantly decrease; inhibition of PTP1B enzyme activity (PTP1B [2]; lupeol 28 μM, 10 h after TNFα 8 h): significantly inhibited; inhibition at 28 µM (PTP1B [2]; lupeol 28 μM, 10 h after TNFα 8 h, read-out: inhibition of PTP1B enzyme activity): 35%
